According to patent US12195464B2, “Lumateperone bis-tosylate salts and crystals and methods for manufacture thereof” (INTRA-CELLULAR THERAPIES, INC., priority 2018, dated 2025):

How the values were obtained:
[1] = biological target: H1 histaminergic (Homo sapiens, UniProt P35367); conditions: receptor associated with cognitive and metabolic side effects; cited from earlier work
[2] = test system: NMDA and AMPA signaling; conditions: especially in the medial prefrontal cortex (mPFC); indirectly via D1 interaction; cited from earlier work
[3] = solubility in organic solvents; assay type: physicochemical; conditions: free base, variety of organic solvents
[4] = free base form; cited from earlier work
[5] = test system: muscarinic; conditions: receptor associated with cognitive and metabolic side effects; cited from earlier work
[6] = biological target: T1, 5-HT2C (Homo sapiens, UniProt P28335); conditions: receptor associated with cognitive and metabolic side effects; cited from earlier work
T1 sequence (P28335 33-458): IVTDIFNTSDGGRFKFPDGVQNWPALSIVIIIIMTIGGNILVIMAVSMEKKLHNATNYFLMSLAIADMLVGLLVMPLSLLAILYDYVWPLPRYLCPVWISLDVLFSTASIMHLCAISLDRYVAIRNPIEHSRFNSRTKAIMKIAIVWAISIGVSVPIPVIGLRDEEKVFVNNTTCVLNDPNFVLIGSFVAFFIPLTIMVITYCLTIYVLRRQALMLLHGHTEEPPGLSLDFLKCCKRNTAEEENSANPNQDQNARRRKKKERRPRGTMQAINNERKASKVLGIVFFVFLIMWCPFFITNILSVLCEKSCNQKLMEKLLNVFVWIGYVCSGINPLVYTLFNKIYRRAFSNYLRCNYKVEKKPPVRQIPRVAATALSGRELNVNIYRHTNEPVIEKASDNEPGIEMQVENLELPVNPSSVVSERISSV

[7] = salt of U.S. Pat. No. 7,183,282; cited from earlier work
[8] = salt of U.S. Pat. No. 7,183,282; cited from earlier work; remark: listed apart in the source

H1 histaminergic, sequence (P35367 whole entry): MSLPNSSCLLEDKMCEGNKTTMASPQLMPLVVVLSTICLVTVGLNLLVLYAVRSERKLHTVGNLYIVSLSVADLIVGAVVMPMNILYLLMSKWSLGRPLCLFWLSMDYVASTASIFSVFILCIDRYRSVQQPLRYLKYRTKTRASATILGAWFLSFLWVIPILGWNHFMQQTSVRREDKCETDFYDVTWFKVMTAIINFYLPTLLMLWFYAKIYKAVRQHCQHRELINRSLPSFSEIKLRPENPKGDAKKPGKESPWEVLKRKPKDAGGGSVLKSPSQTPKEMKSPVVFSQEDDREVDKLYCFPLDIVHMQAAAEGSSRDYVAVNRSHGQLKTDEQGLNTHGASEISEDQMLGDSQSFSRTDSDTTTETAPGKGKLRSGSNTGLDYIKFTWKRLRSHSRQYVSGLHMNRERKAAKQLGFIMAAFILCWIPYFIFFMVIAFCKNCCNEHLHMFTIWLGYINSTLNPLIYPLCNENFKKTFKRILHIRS

solubility in organic solvents [3] | SMILES | binding to H1 histaminergic receptor [1] | NMDA and AMPA signaling in the brain [2] | aqueous solubility [4] | binding to muscarinic receptors [5] | binding to 5-HT2C receptor [6] | hygroscopicity (in words) [7] | stability (in words) [8]
good solubility | CN1CCN2c3c(cccc31)[C@@H]1CN(CCCC(=O)c3ccc(F)cc3)CC[C@@H]12 [ITI-007, 4-((6bR,10aS)-3-methyl-2,3,6b,9,10,10a-hexahydro-1H-pyrido[3′,4′:4,5]pyrrolo[1,2,3-de]quinoxalin-8(7H)-yl)-1-(4-fluorophenyl)-1-butanone] | negligible binding | enhanced | poor aqueous solubility | negligible binding | negligible binding |  | 
 | CN1CCN2c3c(cccc31)C1CN(CCCC(=O)c3ccc(F)cc3)CCC12.Cl (centres unmarked) [hydrochloride salt form of ITI-007] |  |  |  |  |  | hygroscopic | poor stability
